Measured values published in ChEMBL document CHEMBL1667812, “Compounds from Kadsura angustifolia with anti-HIV activity” (Bioorg Med Chem Lett, 2011).
≈ marks a conversion by molar mass, not a printed value.

Key:
[1] = tested on: Human immunodeficiency virus 1; assay: Antiviral activity against HIV1-3B infected in human […] cells assessed as inhibition of virus-induced cytopathic effect; type: functional, organism-based; details: Human immunodeficiency virus 1, 3B
[2] = Therapeutic index, ratio of CC50 for human […] cells to EC50 for HIV1-3B; type: cell-based; details: read-out: Ratio CC50/EC50
[3] = Cytotoxicity against human […] cells; type: cell-based

Row | SMILES | EC50 [1] | selectivity ratio [2] | CC50 [3]
1 | C=C(CC/C=C(/C)C(=O)O)C1=CC[C@@]2(C)[C@@H]3[C@H]4C[C@H](C(=C)C)[C@@]5(CCC(=O)O4)C[C@@]35CC[C@]12C [ANGUSTIFIC ACID A] | 6.11 µg/mL (≈ 13.1 µM) | > 32.8 | > 200 µg/mL
2 | CC1(C)OC(=O)C=C[C@]23C[C@]24C[C@H](O)[C@]2(C)[C@@H]([C@@](C)(O)[C@H]5CC=C(CO)C(=O)O5)CC[C@@]2(C)[C@@H]4C[C@H](O)[C@@H]13 [ANGUSTIFODILACTONE A] | 13.3 µg/mL (≈ 25.1 µM) | 13.4 | 178 µg/mL (≈ 336 µM)
3 | C/C=C(/C)C(=O)O[C@H]1c2cc3c(c(OC)c2-c2c(cc4c(c2OC)OCO4)C[C@H](C)[C@]1(C)O)OCO3 [INTERIOTHERIN B] | 19 µg/mL (≈ 38.1 µM) | > 10.5 | > 200 µg/mL
4 | C=C(C)[C@@H]1CC[C@@H]2[C@]3(CC[C@]4(C)C(=O)CC[C@@]24C)C[C@]13CCC(=O)O [MICRANOIC ACID B] | 15.7 µg/mL (≈ 45.6 µM) | 11.2 | 176 µg/mL (≈ 511 µM)
5 | C=C(C)[C@@H]1C[C@H](O)[C@@H]2[C@]3(CC[C@]4(C)C([C@@](C)(O)CC/C=C(/C)C(=O)O)=C[C@H](O)[C@@]24C)C[C@]13CCC(=O)O [ANGUSTIFIC ACID B] | 11.2 µg/mL (≈ 21.7 µM) | 13.9 | 156 µg/mL (≈ 302 µM)
6 | CC1=CC[C@H]([C@](C)(O)[C@H]2CC[C@@]3(C)[C@@H]4C[C@H](O)[C@H]5C(C)(C)OC(=O)C=C[C@@]56C[C@@]46C[C@H](O)[C@]23C)OC1=O [ANGUSTIFODILACTONE B] | 13.6 µg/mL (≈ 26.4 µM) | 13.4 | 182 µg/mL (≈ 354 µM)
7 | C=C(C)[C@@H]1CC[C@@H]2[C@]3(CC[C@]4(C)[C@@H]([C@H](C)CC/C=C(/C)C(=O)O)CC[C@@]24C)C[C@]13CCC(=O)O [NIGRANOIC ACID] | 10.5 µg/mL (≈ 22.3 µM) | 8.48 | 89 µg/mL (≈ 189 µM)

Second part, led by results:

Row | EC50 [1] | SMILES | selectivity ratio [2] | CC50 [3]
8 | 20.5 µg/mL (≈ 39.4 µM) | COc1c2c(cc3c1-c1c(cc4c(c1OC)OCO4)[C@H](OC(=O)c1ccccc1)[C@@](C)(O)[C@@H](C)C3)OCO2 [SCHISANTHERIN D] | > 9.76 | > 200 µg/mL
9 | 0.0033 µg/mL (≈ 0.0123 µM) | Cc1cn([C@H]2C[C@H](N=[N+]=[N-])[C@@H](CO)O2)c(=O)[nH]c1=O [ZIDOVUDINE] | > 60600 | > 200 µg/mL
10 | 22.1 µg/mL (≈ 42.9 µM) | C/C=C(/C)C(=O)O[C@H]1c2cc(OC)c(OC)c(OC)c2-c2c(cc3c(c2OC)OCO3)C[C@H](C)[C@]1(C)O [SCHISANTHERIN B] | > 9.05 | > 200 µg/mL
11 | 15.8 µg/mL (≈ 36.5 µM) | COc1cc2c(c(OC)c1OC)-c1c(cc(OC)c(OC)c1OC)C[C@](C)(O)[C@@H](C)C2 [SCHIZANDRIN] | > 12.7 | > 200 µg/mL
